Where a name gives a salt, the structure may show the parent alone. Read-outs that look alike come from different tables or passages of the source. One block for each molecule: values may come before it.
What was measured:
T. b. brucei = assay: In vitro antitrypanosomal activity against T. brucei (growth inhibition); format: cell-based, Trypanosoma brucei
Experimental: Primary hits from the screen were further characterized using a dose-response assay format to determine the EC50. In parallel, the cytotoxicities of these compounds were determined against a proliferating human hepatoma cell line (Huh7). […] SI—CC50/EC50). The final set of confirmed T. brucei hits consisted of 1035 inhibitors. […] In vitro antitrypanosomal activities against T. b. rhodesiense (STIB9000) and cytotoxicities against L6 rat myoblast cells were measured following established protocols (Orhan et al., Mar. Drugs 8:47 (2010). […] All wells including negative controls contained a final of 0.4% DMSO. After incubation of the plates at 37° C. for 48 h, the parasite density was determined using the CellTiter-Glo reagent (Promega), a firefly luciferase assay system that measures the amount of cellular ATP present in plate wells.

Trypanosoma cruzi = assay: Efficacy against T. cruzi in vitro; format: cell-based; conditions: Trypanosoma cruzi; Table 16; read-out: T. Cruzi EC50
human hepatocytes HepG2 = assay: Cytotoxicity against HepG2 cells
[1] = test system: human lymphocytes CRL-8155; assay: Cytotoxicity against CRL-8155 cells; conditions: human lymphoblasts
Experimental: The selectivity of each compound for the parasite over each of the two cell lines was calculated.

[2] = Distribution between mouse plasma and brain (brain penetration, ip); format: in vivo
Experimental: For distribution of compounds between mouse plasma and brain, mice (in groups of 3) were injected with test compounds (5 mg/kg ip) and sacrificed at the indicated times for collection of plasma and brain. Compound was dissolved in 0.4 mL of dosing solution (7% Tween 80, 3% ethanol, 5% DMSO, 0.9% saline) for ip injections. The brains were weighed and immediately frozen, then later homogenized in acetonitrile using a Dounce homogenizer. Prior to animal studies, recovery of test compound was carried out by adding a known amount to a mouse brain in the test extraction solvent and performing the homogenization. Compound recovery was determined by liquid chromatography/tandem mass spectrometry analysis relative to a standard compound amount. Blood was taken from the same mice in heparinized capillary tubes (Fisherbrand) for determination of compound concentration in plasma. The concentration of compound in the brain was obtained by dividing the moles of compound in the brain by the brain volume (obtained from the brain weight assuming 1 g is 1 mL) and correcting for the brain vasculature volume of 2.5% by weight.
Brain penetration studies (Table 14) were initially performed upon compounds 1, 2, and 3, but were expanded to include other compounds in order to explore the SAR of brain penetration. Groups of three mice were given single 5 mg/kg ip doses of the test compounds and were sacrificed 1 h post-dose.

[3] = Trypanosoma brucei, Table 9, read-out: T. brucei EC50
[4] = Trypanosoma brucei, Table 9, read-out: T. brucei EC90
[5] = Trypanosoma brucei, Table 16, read-out: T. b. brucei EC50
[6] = Trypanosoma brucei, Table 17, read-out: T. b. brucei EC50
[7] = Trypanosoma brucei, Table 17, read-out: T. b. brucei EC90
[8] = Table 14, mice, single ip dose 5 mg/kg, one hour post-dose, ± SEM of 3 mice (compound 3: 6 mice)

Molecule: O=C(Nc1ccc2sc(-c3ccccc3)nc2c1)c1ccsc1 [Compound 19, 2-Phenyl-5-(3-thienylamido)benzothiazole]
EC50 (T. b. brucei; [3]): 1570 nM | EC90 (T. b. brucei; [4]): 2490 nM

EC50 (Trypanosoma cruzi): 1020 nM
Molecule: O=C(Nc1ccn2cc(-c3cccc(F)c3F)nc2c1)N1CCCC1 [Compound 45, N-[2-(2,3-difluorophenyl)imidazo[1,2-a]pyridin-7-yl]pyrrolidine-1-carboxamide]
EC50 (T. b. brucei; [5]): 580 nM

Molecule: O=C(Nc1ccc2sc(-c3cccc(F)c3)nc2c1)N1CCN(C(=O)Nc2ccc3sc(-c4cccc(F)c4)nc3c2)CC1 [Compound 31, N^1,N^4-Bis(2-(3-fluorophenyl)benzothiazol-5-yl)piperazine-1,4-dicarboxamide]
EC50 (T. b. brucei; [3]): > 20000 nM | EC90 (T. b. brucei; [4]): > 20000 nM

Molecule: O=C(Nc1cnc2sc(-c3ccc(F)c(F)c3)nc2c1)N1CC[C@H](F)C1 [Compound 56, (S)-2-(3,4-Difluorophenyl)-5-(3-fluoro-N-pyrrolidylamido)-7-azabenzothiazole]
EC50 (T. b. brucei; [6]): 181 nM | EC90 (T. b. brucei; [7]): 364 nM

EC50 (Trypanosoma cruzi): 940 nM
Molecule: O=C(Nc1ccn2cc(-c3cccc(F)c3F)nc2c1)N1CC[C@H](F)C1 [Compound 44, (3S)-N-[2-(2,3-difluorophenyl)imidazo[1,2-a]pyridin-7-yl]-3-fluoropyrrolidine-1-carboxamide]
EC50 (T. b. brucei; [5]): 180 nM

EC50 (Trypanosoma cruzi): 2750 nM
Molecule: O=C(Nc1ccn2cc(-c3ccccc3)nc2c1)N1CCCCC1 [Compound 52, N-{2-phenylimidazo[1,2-a]pyridin-7-yl}piperidine-1-carboxamide]
EC50 (T. b. brucei; [5]): 2510 nM

EC50 (Trypanosoma cruzi): 3100 nM
Molecule: O=C(Nc1ccn2cc(-c3cccc(F)c3)nc2c1)N1CCCCC1 [Compound 49, N-[2-(3-fluorophenyl)imidazo[1,2-a]pyridin-7-yl]piperidine-1-carboxamide]
EC50 (T. b. brucei; [5]): 970 nM

Molecule: N=C(N)c1ccc(OCCCCCOc2ccc(C(=N)N)cc2)cc1 [penth, Pentamidine, reference compound]
EC50 (T. b. brucei; Trypanosoma brucei, Table 11, read-out: T. b. brucei EC50): 1.05 nM | EC50 (human hepatocytes HepG2; Homo sapiens, HepG2, read-out: HepG2 EC50): > 100000 nM | EC90 (human hepatocytes HepG2; read-out: HepG2 EC90, concentration required to inhibit growth by 90%, human hepatocytes): > 100000 nM | EC50 ([1]; read-out: CRL-8155 EC50, concentration required to inhibit growth by 50%): 45400 nM | EC90 ([1]; read-out: CRL-8155 EC90, concentration required to inhibit growth by 90%): > 100000 nM

EC50 (Trypanosoma cruzi): 90 nM
Molecule: O=C(Nc1cc2nc(-c3ccc(F)c(F)c3)cn2cn1)N1CC[C@H](F)C1 [Compound 53, (3S)-N-[2-(3,4-difluorophenyl)imidazo[1,2-c]pyrimidin-7-yl]-3-fluoropyrrolidine-1-carboxamide]
EC50 (T. b. brucei; [5]): 20 nM

EC50 (Trypanosoma cruzi): 710 nM
Molecule: O=C(Nc1ccn2cc(-c3cccc(F)c3)nc2c1)N1CC[C@H](F)C1 [Compound 47, (3S)-3-fluoro-N-[2-(3-fluorophenyl)imidazo[1,2-a]pyridin-7-yl]pyrrolidine-1-carboxamide]
EC50 (T. b. brucei; [5]): 160 nM

EC50 (Trypanosoma cruzi): 2950 nM
Molecule: O=C(Nc1ccn2cc(-c3cccc(F)c3)nc2c1)N1CCCC1 [Compound 48, N-[2-(3-fluorophenyl)imidazo[1,2-a]pyridin-7-yl]pyrrolidine-1-carboxamide]
EC50 (T. b. brucei; [5]): 730 nM

EC50 (Trypanosoma cruzi): 390 nM
Molecule: O=C(Nc1ccn2cc(-c3ccc(F)c(F)c3)nc2c1)N1CC[C@H](F)C1 [Compound 41, (3S)-N-[2-(3,4-difluorophenyl)imidazo[1,2-a]pyridin-7-yl]-3-fluoropyrrolidine-1-carboxamide]
EC50 (T. b. brucei; [5]): 160 nM

Molecule: O=C(Nc1ccc2sc(-c3ccc(F)c(F)c3)nc2c1)c1cncs1 [Compound 61]
EC50 (T. b. brucei; [6]): 3830 nM | EC90 (T. b. brucei; [7]): 7370 nM

Molecule: O=C(Nc1ccc2sc(-c3ccccc3)nc2c1)c1cscn1 [Compound 21, N-(2-Phenylbenzo[d]thiazol-5-yl)thiazole-4-carboxamide]
EC50 (T. b. brucei; [3]): > 10000 nM | EC90 (T. b. brucei; [4]): > 10000 nM

EC50 (Trypanosoma cruzi): 4460 nM
Molecule: O=C(Nc1ccn2cc(-c3ccccc3)nc2c1)N1CCCC1 [Compound 51, N-{2-phenylimidazo[1,2-a]pyridin-7-yl}pyrrolidine-1-carboxamide]
EC50 (T. b. brucei; [5]): 2230 nM

Molecule: Cc1nc(C)c(C(=O)Nc2ccc3sc(-c4ccc(F)c(F)c4)nc3c2)s1 [Compound 62]
EC50 (T. b. brucei; [6]): > 20000 nM | EC90 (T. b. brucei; [7]): > 20000 nM

Molecule: N-(2-(3,4-Difluorophenyl)benzo[d]thiazol-5-yl)oxazole-4-carboxamide [Compound 57]
EC50 (T. b. brucei; Table 17, read-out: T. b. brucei EC50): > 20000 nM | EC90 (T. b. brucei; Table 17, read-out: T. b. brucei EC90): > 20000 nM

EC50 (Trypanosoma cruzi): 2240 nM
Molecule: O=C(Nc1ccn2cc(-c3ccc(F)c(F)c3)nc2c1)N1CCCC1 [Compound 42, N-[2-(3,4-difluorophenyl)imidazo[1,2-a]pyridin-7-yl]pyrrolidine-1-carboxamide]
EC50 (T. b. brucei; [5]): 320 nM

Molecule: O=C(Nc1ccc2sc(-c3ccc(F)c(F)c3)nc2c1)c1cnco1 [Compound 58, N-(2-(3,4-Difluorophenyl)benzo[d]thiazol-5-yl)oxazole-5-carboxamide]
EC50 (T. b. brucei; [6]): > 20000 nM | EC90 (T. b. brucei; [7]): > 20000 nM

EC50 (Trypanosoma cruzi): 2840 nM
Molecule: O=C(Nc1ccn2cc(-c3ccc(F)c(F)c3)nc2c1)N1CCCCC1 [Compound 43, N-[2-(3,4-difluorophenyl)imidazo[1,2-a]pyridin-7-yl]piperidine-1-carboxamide]
EC50 (T. b. brucei; [5]): 1200 nM

Brain/plasma ratio ([2]; Table 14, mice, single ip dose 5 mg/kg, one hour post-dose): 1.58 ± 0.484 | [compound]Brain [2, 8]: 0.397 ± 0.077 µM | [compound]Plasma [2, 8]: 0.270 ± 0.036 µM | Kp at 1 h ([2]; mouse, brain and plasma, intraperitoneal, 5 mg/kg, Table 7, groups of 3 mice, read-out: Average brain/plasma ratio): 1.58 ± 0.839 | concentration at 1 h ([2]; mouse, brain, intraperitoneal, 5 mg/kg, Table 7, groups of 3 mice, read-out: Average [compound] brain): 397 ± 130 nM | concentration at 1 h ([2]; mouse, plasma, intraperitoneal, 5 mg/kg, Table 7, groups of 3 mice, read-out: Average [compound] plasma): 270 ± 62 nM
Molecule: O=C(Nc1ccc2oc(-c3ccccc3)nc2c1)N1CCCC1 [Compound 8, 2-Phenyl-5-N-pyrrolidylamidobenzoxazole]
EC50 (T. b. brucei; Trypanosoma brucei, Table 7, read-out: T. brucei EC50): 5250 nM | EC50 (T. b. brucei; [3]): 5250 nM | EC90 (T. b. brucei; [4]): > 10000 nM

Molecule: O=C(Nc1ccc2sc(-c3ccccc3)nc2c1)c1nccs1 [Compound 20, N-(2-Phenylbenzo[d]thiazol-5-yl)thiazole-2-carboxamide]
EC50 (T. b. brucei; [3]): 5860 nM | EC90 (T. b. brucei; [4]): > 10000 nM

Molecule: O=C(Nc1ccc2sc(-c3ccc(F)c(F)c3)nc2c1Br)N1CC[C@H](F)C1 [Compound 55]
EC50 (T. b. brucei; [6]): > 20000 nM | EC90 (T. b. brucei; [7]): > 20000 nM

EC50 (Trypanosoma cruzi): 2530 nM
Molecule: O=C(Nc1ccn2cc(-c3ccc(F)c(F)c3)nc2n1)N1CC[C@H](F)C1 [Compound 54, (3S)-N-[2-(3,4-difluorophenyl)imidazo[1,2-a]pyrimidin-7-yl]-3-fluoropyrrolidine-1-carboxamide]
EC50 (T. b. brucei; [5]): > 20000 nM

EC50 (Trypanosoma cruzi): 1000 nM
Molecule: O=C(Nc1ccn2cc(-c3cccc(F)c3F)nc2c1)N1CCCCC1 [Compound 46, N-[2-(2,3-difluorophenyl)imidazo[1,2-a]pyridin-7-yl]piperidine-1-carboxamide]
EC50 (T. b. brucei; [5]): 720 nM

EC50 (Trypanosoma cruzi): 1080 nM
Molecule: O=C(Nc1ccn2cc(-c3ccccc3)nc2c1)N1CC[C@H](F)C1 [Compound 50, (3S)-3-fluoro-N-{2-phenylimidazo[1,2-a]pyridin-7-yl}pyrrolidine-1-carboxamide]
EC50 (T. b. brucei; [5]): 620 nM

Molecule: Cc1nc(C(=O)Nc2ccc3sc(-c4ccc(F)c(F)c4)nc3c2)c(C)o1 [Compound 60]
EC50 (T. b. brucei; [6]): > 20000 nM | EC90 (T. b. brucei; [7]): > 20000 nM

Molecule: O=C(Nc1ccc2[nH]c(-c3ccccc3)nc2c1)c1ccccc1 [Compound 14, 5-Benzamido-2-phenylbenzimidazole hydrochloride]
EC50 (T. b. brucei; Trypanosoma brucei, read-out: T. brucei EC50): > 10000 nM | EC90 (T. b. brucei; Trypanosoma brucei, read-out: T. brucei EC90): > 10000 nM

Molecule: NC1CCN(C(=O)Nc2ccc3sc(-c4ccc(F)c(F)c4)nc3c2)C1 (centres unmarked) [Compound 37, 2-(3,4-Difluorophenyl)-5-(3-amino-N-pyrrolidylamido)benzothiazole]
EC50 (T. b. brucei; [3]): 2320 nM | EC90 (T. b. brucei; [4]): 2720 nM
